{"source": "patent US8883718B2", "about": "“Treating cancer” (Theryte Limited, priority 2008, dated 2014)", "type_in_all_cases": "cell-based", "key": {"[1]": {"system": "MRC-hTERT immortalized normal human fibroblasts", "experiment": "MRC-hTERT fibroblasts exposed to THR53", "settings": "200 μM", "procedure": "FIGS. 7(c), (d) and (e) show time lapse photomicrographs of H460 human non-small cell lung cancer cells and MRC-hTERT immortalized normal human fibroblasts growing in tissue culture following exposure to 200 μM THR53 (SEQ ID NO: 9) (d, e) and untreated control H460 cells (c). Magnification ×10.\n(§1) In a clinical context this might provide a biomarker of therapeutic efficacy. […] Such a homogeneous therapeutic response is in marked contrast to the wide range of variability in dose response of different cancer cell lines seen with conventional chemotherapeutic agents^24. Cancer cells both underwent successful mitosis and died (FIG. 3f) or died in interphase (FIG. 7d). […] MRC-hTERT fibroblasts (FIG. 7c) and short term cultures of normal diploid human keratinocytes (FIG. 3h) were not killed by 200 μM THR53."}, "[2]": {"system": "Eleven human cancer cell lines covering a wide range of histologies", "experiment": "eleven human cancer cell lines exposed to THR53 (morphology and clonogenic assays)", "settings": "200 μM", "procedure": "as §1"}, "[3]": {"system": "normal diploid human keratinocytes", "experiment": "normal keratinocyte cultures exposed to THR53", "settings": "200 μM", "procedure": "FIGS. 7(g), (h), (i,) and (j) show established cultures of H460 human non-small cell lung cancer cells (i, j) and normal diploid human keratinocytes (g, h) in the presence and absence of THR53. 10^4 tumor or keratinocyte cells were plated in 2.5 cm diameter tissue culture wells and 5 days later vehicle (g, i) or 200 μM THR53 (SEQ ID NO: 9) (h, j) were added. Further incubation was carried out for 7 days.\nas §1"}, "[4]": {"system": "H460 human non-small cell lung cancer cells", "experiment": "clonogenic assay on H460 cells", "procedure": "The first experiments were carried out on cyc-[[…]] (THR 53, (SEQ ID NO: 9)), see FIG. 4. Whilst the 96 well assays described in Example 3 are suitable for initial screening of small amounts of peptide material the long incubation periods in dense culture do themselves compromise cell viability to some extent. […] In clonogenic assays, (previously described by Warenius et al Br J Cancer (2000) 83(8), 1048-1059) single cell suspensions of 100 cells are plated in plentiful volumes of 2 ml of Ham's F12 tissue culture medium supplemented with 10% FCS and incubated for 15, 20 or 25 days. A high percentage of the plated cells (40-60% in the case of H460) go through repeated doublings to yield colonies of 200 or more cells which can be easily visualized by the naked eye and counted under a low power lens when stained by giemsa stain.\nThe efficacy of THR53 was compared to Ac-PRGPRP-NH2 (SEQ ID NO: 2) using a clonogenic assay."}}, "note": "Entries after “also recorded” stand apart in the source; their conditions may differ. Where a SMILES comes first, the peptide text is derived from it.", "data": [{"smiles": "CC(C)C[C@@H]1NC(=O)[C@H](C)NC(=O)[C@H](CC(C)C)NC(=O)[C@H](CCCCN)NC(=O)[C@H](C(C)C)NC(=O)[C@@H]2CCCN2C(=O)[C@H](CCCNC(=N)N)NC(=O)[C@@H]2CCCN2C(=O)CNC(=O)[C@H](CCCNC(=N)N)NC(=O)[C@@H]2CCCN2C(=O)[C@@H]2CCCN2C(=O)[C@H](Cc2ccccc2)NC(=O)[C@H](CCCCN)NC(=O)[C@H](CC(C)C)NC(=O)[C@H](C)NC(=O)[C@H](CC(C)C)NC(=O)[C@H](CCCCN)NC1=O", "note": "[THR53] (cyclo(ALKFPPRGPRPVKLALKL))", "values": [{"measurement": "killing of MRC-hTERT fibroblasts", "setting": "[1]", "value": "not killed"}, {"measurement": "mode of cancer cell death", "setting": "[2]", "value": "no features of apoptosis"}, {"measurement": "response / lethality in clonogenic assays", "setting": "[2]; 15 days after exposure, eleven human cancer cell lines", "value": "complete lethality; also recorded: complete response"}, {"measurement": "killing of normal diploid human keratinocytes in short term culture", "setting": "[3]", "value": "not killed"}, {"measurement": "lethality on H460 non-small cell lung cancer cells", "setting": "[4]; 100 uM, no colonies visible", "value": 100, "unit": "%"}, {"measurement": "H460 cell survival in clonogenic assay", "setting": "[4]; drug concentrations 10 to 100 μM", "value": "significantly decreased"}]}]}
